# In patent US20100029600A1, “DIHYDRO-TRITERPENES IN THE TREATMENT OF VIRAL INFECTIONS, CARDIOVASCULAR DISEASE, INFLAMMATION, HYPERSENSITIVITY OR PAIN” (priority 2001, published 2010):
# Experiments:
# [1] = tested on: TPA induced ear inflammation; experiment: TPA (phorbolester) induced ear oedema test in the mouse, topical; format: in vivo; conditions: 0.02 mg per application topical; 3 h after TPA; p<0.05
# [2] = tested on: carrageenin-induced paw oedema; experiment: Carrageenin-induced paw oedema test in the rat, oral; format: in vivo; conditions: 150 mg/kg oral, p<0.05
# Protocol: Carrageenin, the phlogistic agent of choice for testing antiinflammatory drugs, is a mucopolysaccharide derived from Irish sea moss, Chondrus. Ibuprofen is used as a positive control.
# The test article is the composition according to the invention described in example 1 further modified so that the dihydro-triterpenes are predominantly in the form of fatty acid esters (Compound 2). Ibuprofen is obtained from Astion A/S, Denmark. The test article is dissolved in peanut oil, which is used as vehicle.
# The study is performed in male SPF Sprague Dawley rats of the stock Mol:SPRD from M & B A/S, Tornbjergvej 40, DK-4623 Lille Skensved. At start of the acclimatisation period the rats are in the weight range of 80-100 g.
# The test articles or vehicle are administered orally by gavage in volumes of 20 ml per kg body weight, 0-5 minutes before injection of carrageenin into the foot.
# Carrageenin (from Sigma) is prepared as a 1% suspension in sterile 0.9% NaCl-solution. A volume of 0.1 ml is injected through a 25-gauge needle into the plantar tissue of the right hind paw of the rats within 5 minutes after treatment with the test articles.
# Immediately before the dosing and carrageenin injection and three and five hours later the foot volume is measured using a plethysmometer LE 7500 from Letica Scientific Instruments, Spain.
SMILES,inhibition of ear swelling [1] [%],inhibition of paw oedema ([2]; after five hours) [%],inhibition of paw oedema ([2]; after three hours) [%]
"CCCC(=O)O[C@]1(C(=O)CO)CC[C@H]2[C@@H]3CCC4=CC(=O)CC[C@]4(C)[C@H]3[C@@H](O)C[C@@]21C [Hydrocortisone 17-butyrate, hydrocortisone 17-butyrate]",90,–,–
"CC(C)Cc1ccc(C(C)C(=O)O)cc1 (stereo not drawn) [ibuprofen, Ibuprofen]",–,88,81
